From publication PMC11945486, “TAS1R2/TAS1R3 Single-Nucleotide Polymorphisms Affect Sweet Taste Receptor Activation by Sweeteners: The SWEET Project” (Nutrients, 2025)
Where two headings read alike, the source gives them in different places. No end group written: not given here.

T1: human TAS1R2-WT/TAS1R3-R247H (Homo sapiens, UniProt Q7RTX0+Q8TE23, R247H)
T1 construct: expressed in transfected cells; host or cells: HEK293T stably expressing Gα16gust44
T1 sequence (Q8TE23 20-839): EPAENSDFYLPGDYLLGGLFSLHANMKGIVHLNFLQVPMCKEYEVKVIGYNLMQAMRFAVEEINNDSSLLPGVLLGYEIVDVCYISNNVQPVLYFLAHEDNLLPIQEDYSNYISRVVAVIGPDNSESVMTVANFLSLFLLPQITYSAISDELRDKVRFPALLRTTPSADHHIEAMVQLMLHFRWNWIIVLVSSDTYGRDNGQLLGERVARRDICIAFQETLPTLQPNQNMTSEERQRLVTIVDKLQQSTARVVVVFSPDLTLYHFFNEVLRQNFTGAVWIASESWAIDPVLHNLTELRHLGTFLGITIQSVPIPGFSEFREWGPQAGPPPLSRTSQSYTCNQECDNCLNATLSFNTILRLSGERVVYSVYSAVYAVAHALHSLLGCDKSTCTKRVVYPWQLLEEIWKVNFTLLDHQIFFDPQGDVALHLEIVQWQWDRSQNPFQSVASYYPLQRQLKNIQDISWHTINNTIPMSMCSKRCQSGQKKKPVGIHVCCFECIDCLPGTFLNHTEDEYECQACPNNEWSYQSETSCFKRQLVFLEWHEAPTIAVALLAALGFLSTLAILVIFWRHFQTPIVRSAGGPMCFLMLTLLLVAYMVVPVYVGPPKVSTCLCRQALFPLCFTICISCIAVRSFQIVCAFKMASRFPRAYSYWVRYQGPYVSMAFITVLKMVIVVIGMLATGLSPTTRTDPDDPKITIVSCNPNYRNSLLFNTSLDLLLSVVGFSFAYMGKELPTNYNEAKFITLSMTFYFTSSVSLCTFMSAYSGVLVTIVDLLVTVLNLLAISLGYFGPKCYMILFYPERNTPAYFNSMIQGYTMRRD
T1 sequence (Q7RTX0 21-852 R247H): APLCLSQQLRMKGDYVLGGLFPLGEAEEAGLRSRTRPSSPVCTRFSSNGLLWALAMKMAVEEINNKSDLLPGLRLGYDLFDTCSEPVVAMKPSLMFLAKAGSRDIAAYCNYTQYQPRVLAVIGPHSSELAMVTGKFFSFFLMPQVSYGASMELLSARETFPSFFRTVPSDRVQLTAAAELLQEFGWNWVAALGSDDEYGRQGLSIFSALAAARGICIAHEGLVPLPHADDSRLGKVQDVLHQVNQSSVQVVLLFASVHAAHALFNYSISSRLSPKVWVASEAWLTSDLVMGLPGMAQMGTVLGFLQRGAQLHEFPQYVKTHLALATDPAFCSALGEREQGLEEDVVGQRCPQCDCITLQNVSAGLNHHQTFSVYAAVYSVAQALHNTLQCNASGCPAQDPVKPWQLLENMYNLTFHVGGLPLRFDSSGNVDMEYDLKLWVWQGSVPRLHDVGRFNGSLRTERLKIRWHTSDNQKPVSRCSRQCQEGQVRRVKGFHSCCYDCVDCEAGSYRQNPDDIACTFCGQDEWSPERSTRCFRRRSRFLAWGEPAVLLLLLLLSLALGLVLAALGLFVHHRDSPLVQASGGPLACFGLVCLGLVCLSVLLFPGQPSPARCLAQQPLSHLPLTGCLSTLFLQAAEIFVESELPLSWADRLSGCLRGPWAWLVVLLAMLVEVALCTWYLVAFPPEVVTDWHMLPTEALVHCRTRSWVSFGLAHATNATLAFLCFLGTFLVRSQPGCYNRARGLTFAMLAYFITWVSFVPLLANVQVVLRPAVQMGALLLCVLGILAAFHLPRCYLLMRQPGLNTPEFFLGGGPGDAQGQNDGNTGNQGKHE

B1: thaumatin (protein)
chain: ATFEIVNRCSYTVWAAASKGDAALDAGGRQLNSGESWTINVEPGTKGGKIWARTDCYFDDSGSGICKTGDCGGLLRCKRFGRPPTTLAEFSLNQYGKDYIDISNIKGFNVPMDFSPTTRGCRGVRCAADIVGQCPAKLKAPGGGCNDACTVFQTSEYCCTTGKCGPTEYSRFFKRLCPDAFSYVLDKPTTVTCPGSSNYRVTFCPTA
modifications: Eight disulfides
notes: sweet-tasting plant protein, E957

Biological target: T1, human TAS1R2-WT/TAS1R3-R247H
Experiment: Calcium mobilisation assay, TAS1R2-WT with TAS1R3 variant R247H
Assay type: cell-based
Settings: for Max ΔF/F0: maximal signal amplitude
From the text: The coding sequences for TAS1R2 and TAS1R3 were commercially synthesised, and the human codon was optimised for expression in human cells. The coding sequences of human TAS1R2 and TAS1R3 were subcloned and inserted into the mammalian expression vectors pcDNA6/myc-HisA and pcDNA4/myc-HisA (Invitrogen; Thermo Fisher Scientific; Illkirch, France) between the EcoRI and NotI restriction sites, generating the plasmids pcDNA6-TAS1R2 and pcDNA4-TAS1R3, respectively. To increase protein expression in mammalian cells, an upstream start codon was used, which was a sequence called MAX, corresponding to the QBI SP163 element also described in pcDNA4-HisMax (Invitrogen; Thermo Fisher Scientific; Illkirch, France). To measure the expression level of the receptor by immunohistochemistry, we used the FLAG sequence ([…]) in the C-terminal position, which encodes the FLAG tag epitope. SNP variants of TAS1R2 and TAS1R3 were constructed based on […], respectively, using site-directed mutagenesis (Genewiz; Leipzig, Germany).
The HEK293T cells were kindly provided by Jay P. Slack (Givaudan Flavors Corporation; Cincinnati, OH, USA). HEK293T cells stably transfected with Gα16gust44 [43, 67] were seeded in poly-D-lysine-coated clear-bottom black 96-well plates (0.35 × 10^5 cells/well) in high-glucose DMEM supplemented with 2 mM GlutaMAX, 10% dialysed foetal bovine serum with penicillin/streptomycin and G418 (400 μg/mL) at 37 °C and 6.3% CO2 in a humidified atmosphere as previously reported. […] As a negative control, HEK293T cells were mock-transfected with the empty expression vector. After a further 24 h of incubation, the HEK293T cells were washed with C1 buffer (130 mM NaCl, 5 mM KCl, 10 mM HEPES pH 7.4 and 2 mM CaCl2). The 96-well plates containing the cells were then stimulated with sweet-tasting compounds. […] Different concentration ranges were tested depending on the sweet compound injected. The Ca^2+ changes were expressed as fractional changes in fluorescent light intensity: ΔF/F = (F − F0)/F0, where F was the fluorescent light intensity at each point, and F0 was the value of emitted fluorescent light prior to stimulus application. To calculate dose–response relationships, the changes in fluorescence upon stimulus application were averaged, mock-subtracted and baseline-corrected. The dose–response data obtained were adjusted using a 4-parameter logistic equation. The half-maximal effective concentrations (EC50 values) and maximal signal amplitudes were calculated using SigmaPlot software (version 15.0) (Systat Software; San Jose, CA, USA).
For in vitro calcium mobilisation assay performed on hTAS1R2-SNPs, hTAS1R3-SNPs and mTAS1R3-I60T, 6 to 7 concentrations were tested for each sweet compound, plus buffer alone. All concentration–receptor combinations were measured in duplicate, and each experiment was repeated at least 4 times (8 wells/concentration). Results were expressed for each concentration as ΔF/F mean ± SEM and represented as dose–response curves.

| Molecule | R1 = Variant EC50/WT EC50 | Max ΔF/F0 | EC50 (read-out: EC50) [µM] | EC50 (brazzein) [µg/mL] |
| --- | --- | --- | --- | --- |
| CC1=CC(=O)NS(=O)(=O)O1 [Acesulfame K, acesulfame K] | 1.0 | 0.33 ± 0.01 | 639 ± 17 |  |
| O=S(=O)(O)NC1CCCCC1 [Cyclamate, cyclamate] |  |  | 1520 ± 46 |  |
| C[C@H](CC[C@@H](O[C@@H]1O[C@H](CO[C@@H]2O[C@H](CO)[C@@H](O)[C@H](O)[C@H]2O)[C@@H](O)[C@H](O)[C@H]1O[C@@H]1O[C@H](CO)[C@@H](O)[C@H](O)[C@H]1O)C(C)(C)O)[C@H]1CC[C@@]2(C)[C@@H]3CC=C4[C@@H](CC[C@H](O[C@@H]5O[C@H](CO[C@@H]6O[C@H](CO)[C@@H](O)[C@H](O)[C@H]6O)[C@@H](O)[C@H](O)[C@H]5O)C4(C)C)[C@]3(C)[C@H](O)C[C@]12C [Mogroside V, mogroside V] | 0.9 | 1.12 ± 0.02 | 28.7 ± 1.6 |  |
| COc1ccc(CCC(=O)c2c(O)cc(O[C@@H]3O[C@H](CO)[C@@H](O)[C@H](O)[C@H]3O[C@@H]3O[C@@H](C)[C@H](O)[C@@H](O)[C@H]3O)cc2O)cc1O [NHDC, neohesperidin dihydrochalcone] | 1.3 | 1.14 ± 0.05 | 65 ± 8.9 |  |
| COC(=O)[C@H](Cc1ccccc1)NC(=O)[C@H](CC(=O)O)NCCC(C)(C)C [Neotame] | 0.9 | 0.71 ± 0.02 | 1.12 ± 0.07 |  |
| C=C(C)[C@@H]1CC=C(/C=N/O)CC1 [Perillartine, perillartine] | 0.6 | 1.26 ± 0.15 | 8.5 ± 3.1 |  |
| C=C1C[C@@]23CC[C@H]4[C@@](C)(CCC[C@@]4(C)C(=O)O[C@@H]4O[C@H](CO)[C@@H](O)[C@H](O[C@@H]5O[C@H](CO)[C@@H](O)[C@H](O)[C@H]5O)[C@H]4O[C@@H]4O[C@H](CO)[C@@H](O)[C@H](O)[C@H]4O)[C@@H]2CC[C@]1(O[C@@H]1O[C@H](CO)[C@@H](O)[C@H](O[C@@H]2O[C@H](CO)[C@@H](O)[C@H](O)[C@H]2O)[C@H]1O[C@@H]1O[C@H](CO)[C@@H](O)[C@H](O)[C@H]1O)C3 [Rebaudioside M, rebaudioside M] | 0.7 | 1.15 ± 0.04 | 29.7 ± 2.6 |  |
| OC[C@H]1O[C@H](O[C@]2(CCl)O[C@H](CCl)[C@@H](O)[C@@H]2O)[C@H](O)[C@@H](O)[C@H]1Cl [Sucralose] | 1.1 | 0.69 ± 0.01 | 122 ± 2 |  |
| brazzein (QDKCKKVYENYPVSKCQLANQCNYDCKLDKHARSGECFYDEKRNLQCICDYCEY; ends and bridges not checked; cysteine pairing not given here; UniProt P56552 1-54, looked up) [sweet-tasting protein obtained by recombinant production using the yeast Pichia pastoris] | 0.6 | 0.95 ± 0.03 |  | 70.8 ± 8.1 |
| thaumatin | 0.8 | 0.73 ± 0.08 |  |  |
| B1 |  |  | 8.2 ± 2.3 |  |
